For orientation: EC50 means the concentration at which the effect is half-maximal.

This note sets out measurements from patent US20220348558A1, “INHIBITORS OF ENCEPHALITIC ALPHAVIRUSES” (priority 2019, published 2022).

One experiment concerns VEEV TC83. Nature of the experiment: microbe, parasite or virus in culture. The experiment is classed as cell-based. The note with it: Venezuelan equine encephalitis virus, Vero 76, 48 h, read-out: VEEV TC83 EC50 nM.
The next experiment has as its system WEEV California. Nature of the experiment: microbe, parasite or virus in culture. The experiment is classed as cell-based. Conditions: Western equine encephalitis virus, Vero 76, 48 h, read-out: WEEV California EC50 nM.

SMILES strings stand for the structures. Bounds are passed on as bounds.

Consider `N#Cc1cccc(-n2c([C@H]3CCCN3)nc3ccc([N+](=O)[O-])cc3c2=O)c1` [Example 21, (R)-3-(6-nitro-4-oxo-2-(pyrrolidin-2-yl)quinazolin-3 (4H)-yl)benzonitrile], for which the EC50 with VEEV TC83 and in the experiment with WEEV California was above 1000 nM in each case.

For `COc1ccc(-n2c([C@H]3CCCN3)nc3c(-c4cncnc4)cc(C#N)cc3c2=O)cc1F` [Example 105, (R)-3-(3-fluoro-4-methoxyphenyl)-4-oxo-8-(pyrimidin-5-yl)-2-(pyrrolidin-2-yl)-3,4-dihydroquinazoline-6-carbonitrile], the EC50 in the experiment on VEEV TC83 was in the range of 51 to 150 nM; in the experiment with WEEV California it was 151 to 500 nM.

For the molecule `COc1ccc(-n2c([C@H]3CCCN3)nc3c(C(F)(F)F)cc(C#N)cc3c2=O)cc1F` [Example 76, (R)-3-(3-fluoro-4-methoxyphenyl)-4-oxo-2-(pyrrolidin-2-yl)-8-(trifluoromethyl)-3,4-dihydroquinazoline-6-carbonitrile], the EC50 in the experiment on VEEV TC83 and in the experiment on WEEV California was 1 to 50 nM throughout.

Turning to `COc1ccc(-n2c(C3CCCN3)nc3c(-c4ccc(OC(F)(F)F)cc4)cc(C#N)cc3c2=O)cc1F` (stereo not shown) [Example 151, 3-(3-Fluoro-4-methoxyphenyl)-4-oxo-2-(pyrrolidin-2-yl)-8-(4-(trifluoromethoxy)phenyl)-3,4-dihydroquinazoline-6-carbonitrile], the EC50 with VEEV TC83 and with WEEV California was 1 to 50 nM in each case.

Take `N#Cc1cc(-c2ccc(C(F)(F)F)nc2)c2nc([C@H]3CCCN3)n(-c3ccc(O)c(F)c3)c(=O)c2c1` [Example 168, (R)-3-(3-fluoro-4-hydroxyphenyl)-4-oxo-2-(pyrrolidin-2-yl)-8-(6-(trifluoromethyl)pyridin-3-yl)-3,4-dihydroquinazoline-6-carbonitrile]: the EC50 in the experiment on VEEV TC83 lay within 51 to 150 nM; in the experiment with WEEV California it was 151 to 500 nM.

Regarding `COc1ccc(-n2c([C@H]3CCCN3)nc3ccc(C#N)cc3c2=O)cc1` [Example 14, (R)-3-(4-methoxyphenyl)-4-oxo-2-(pyrrolidin-2-yl)-3,4-dihydroquinazoline-6-carbonitrile], the EC50 in the experiment on VEEV TC83 lay within 1 to 50 nM; in the experiment with WEEV California it was 51 to 150 nM.

`COc1ccc(-n2c(C3CCCN3)nc3c(-c4ccc(CO)cc4)cc(C#N)cc3c2=O)cc1F` (stereo not shown) [Example 134, 3-(3-fluoro-4-methoxyphenyl)-8-(4-(hydroxymethyl)phenyl)-4-oxo-2-(pyrrolidin-2-yl)-3,4-dihydroquinazoline-6-carbonitrile]: the concentration for a half-maximal effect (EC50) with VEEV TC83 and in the experiment on WEEV California was 1 to 50 nM throughout.

Turning to `CNC(C)c1nc2ccc([N+](=O)[O-])cc2c(=O)n1-c1ccc(OC)cc1` (stereo not shown) [Example 205, 3-(4-methoxyphenyl)-2-(1-(methylamino)ethyl)-6-nitroquinazolin-4 (3H)-one], the EC50 in the experiment with VEEV TC83 and with WEEV California was 51 to 150 nM each time.

For `COc1ccc(-n2c([C@@H]3CCCN3)nc3ccc(F)c(F)c3c2=O)cc1` [Example 30, (S)-5,6-difluoro-3-(4-methoxyphenyl)-2-(pyrrolidin-2-yl) quinazolin-4 (3H)-one], the EC50 in the experiment on VEEV TC83 and in the experiment with WEEV California was above 1000 nM in each case.

For `N#Cc1ccccc1-n1c([C@H]2CCCN2)nc2ccc([N+](=O)[O-])cc2c1=O` [Example 22, (R)-2-(6-nitro-4-oxo-2-(pyrrolidin-2-yl)quinazolin-3 (4H)-yl)benzonitrile], the EC50 in the experiment with VEEV TC83 and with WEEV California was above 1000 nM each time.

In the case of `COc1c(F)cc(-n2c(C3CCCN3)nc3c(-c4ccnc(C)c4)cc(C#N)cc3c2=O)cc1F` (stereo not shown) [Example 155, 3-(3,5-Difluoro-4-methoxyphenyl)-8-(2-methylpyridin-4-yl)-4-oxo-2-(pyrrolidin-2-yl)-3,4-dihydroquinazoline-6-carbonitrile], the EC50 in the experiment on VEEV TC83 and in the experiment with WEEV California was 1 to 50 nM throughout.

Regarding `COc1c(F)cc(-n2c(C3CCCN3)nc3c(C#CC(C)(C)O)cc(C#N)cc3c2=O)cc1F` (stereo not shown) [Example 193, 3-(3,5-Difluoro-4-methoxyphenyl)-8-(3-hydroxy-3-methylbut-1-yn-1-yl)-4-oxo-2-(pyrrolidin-2-yl)-3,4-dihydroquinazoline-6-carbonitrile], the EC50 in the experiment with VEEV TC83 and in the experiment on WEEV California was 51 to 150 nM in each case.

With `COc1c(F)cc(-n2c([C@H]3CCCN3)nc3c(-c4ccc(C)nc4)cc(C#N)cc3c2=O)cc1F` [Example 119, (R)-3-(3,5-difluoro-4-methoxyphenyl)-8-(6-methylpyridin-3-yl)-4-oxo-2-(pyrrolidin-2-yl)-3,4-dihydroquinazoline-6-carbonitrile], the EC50 with VEEV TC83 and in the experiment with WEEV California was 1 to 50 nM throughout.

As to `COc1ccc(-n2c([C@H]3CCCN3)nc3c(-c4cccnc4)cc([N+](=O)[O-])cc3c2=O)cc1F` [Example 81, (R)-3-(3-fluoro-4-methoxyphenyl)-6-nitro-8-(pyridin-3-yl)-2-(pyrrolidin-2-yl) quinazolin-4 (3H)-one], the EC50 in the experiment with VEEV TC83 and with WEEV California was 1 to 50 nM throughout.

Take `COc1ccc(-n2c([C@H]3CCCN3)nc3c(-c4ccc(C)nc4)cc([N+](=O)[O-])cc3c2=O)cc1F` [Example 92, (R)-3-(3-fluoro-4-methoxyphenyl)-8-(6-methylpyridin-3-yl)-6-nitro-2-(pyrrolidin-2-yl) quinazolin-4 (3H)-one]: the EC50 with VEEV TC83 and in the experiment on WEEV California was 1 to 50 nM each time.

For `COc1c(F)cc(-n2c(C3CCCN3)nc3c(-c4ccc(C#CCO)cc4)cc(C#N)cc3c2=O)cc1F` (stereo not shown) [Example 169, 3-(3,5-difluoro-4-methoxyphenyl)-8-(4-(3-hydroxyprop-1-yn-1-yl)phenyl)-4-oxo-2-(pyrrolidin-2-yl)-3,4-dihydroquinazoline-6-carbonitrile], the EC50 in the experiment with VEEV TC83 and with WEEV California was 51 to 150 nM in each case.

For the molecule `COc1ccc(-n2c([C@@H]3CCCN3)nc3c(-c4cccnc4)cc(C#N)cc3c2=O)cc1F` [Example 108, (S)-3-(3-fluoro-4-methoxyphenyl)-4-oxo-8-(pyridin-3-yl)-2-(pyrrolidin-2-yl)-3,4-dihydroquinazoline-6-carbonitrile], the EC50 in the experiment on VEEV TC83 and in the experiment on WEEV California was 1 to 50 nM each time.

As to `CN[C@@H](C)c1nc2ccc([N+](=O)[O-])cc2c(=O)n1-c1ccc(OC)cc1` [Example 206, (S)-3-(4-methoxyphenyl)-2-(1-(methylamino)ethyl)-6-nitroquinazolin-4 (3H)-one], the EC50 was in the range of 51 to 150 nM with VEEV TC83 and 151 to 500 nM in the experiment with WEEV California.

As for `COc1ccc(-n2c(C3CCCN3)nc3c(-c4cnc(OC)c(OC)c4)cc(C#N)cc3c2=O)cc1F` (stereo not shown) [Example 135, 8-(5,6-dimethoxypyridin-3-yl)-3-(3-fluoro-4-methoxyphenyl)-4-oxo-2-(pyrrolidin-2-yl)-3,4-dihydroquinazoline-6-carbonitrile], the EC50 with VEEV TC83 and in the experiment on WEEV California was 1 to 50 nM throughout.

In the case of `O=c1c2cc([N+](=O)[O-])ccc2nc([C@H]2CCCN2)n1-c1ccccc1` [Example 2, (R)-6-nitro-3-phenyl-2-(pyrrolidin-2-yl) quinazolin-4 (3H)-one], the EC50 in the experiment with VEEV TC83 lay in the range of 1 to 50 nM; with WEEV California it was 51 to 150 nM.

For the molecule `COc1ccc(-n2c([C@H]3CCCN3)nc3c(-c4ccc(F)nc4)cc(C#N)cc3c2=O)cc1F` [Example 99, (R)-3-(3-fluoro-4-methoxyphenyl)-8-(6-fluoropyridin-3-yl)-4-oxo-2-(pyrrolidin-2-yl)-3,4-dihydroquinazoline-6-carbonitrile], the EC50 in the experiment with VEEV TC83 and in the experiment on WEEV California was 1 to 50 nM in each case.

For `COc1ccc(-n2c(C3CCCN3)nc3ccc([N+](=O)[O-])cc3c2=O)cc1` (stereo not shown) [Example 8, 3-(4-methoxyphenyl)-6-nitro-2-(pyrrolidin-2-yl) quinazolin-4 (3H)-one], the EC50 in the experiment on VEEV TC83 and in the experiment on WEEV California was 1 to 50 nM throughout.

For `COc1ccc(-n2c(C3CCCN3)nc3c(-c4ccc(O)nc4)cc(C#N)cc3c2=O)cc1F` (stereo not shown) [Example 131, 3-(3-fluoro-4-methoxyphenyl)-8-(6-hydroxypyridin-3-yl)-4-oxo-2-(pyrrolidin-2-yl)-3,4-dihydroquinazoline-6-carbonitrile], the EC50 with VEEV TC83 and in the experiment with WEEV California was 1 to 50 nM throughout.

On to `COc1ccc(-n2c([C@H]3CCCN3)nc3c(-c4ccc(C(F)(F)F)nc4)cc([N+](=O)[O-])cc3c2=O)cc1F` [Example 91, (R)-3-(3-fluoro-4-methoxyphenyl)-6-nitro-2-(pyrrolidin-2-yl)-8-(6-(trifluoromethyl)pyridin-3-yl) quinazolin-4 (3H)-one], for which the EC50 in the experiment on VEEV TC83 and in the experiment with WEEV California was 1 to 50 nM throughout.

As for `COc1ccc(-n2c([C@H]3CCCN3)nc3cc([N+](=O)[O-])ccc3c2=O)cc1` [Example 48, (R)-3-(4-methoxyphenyl)-7-nitro-2-(pyrrolidin-2-yl)quinazolin-4 (3H)-one], the EC50 in the experiment on VEEV TC83 and in the experiment on WEEV California was above 1000 nM in each case.

In the case of `COc1c(F)cc(-n2c(C34CC(CN3)C4)nc3c(-c4ccnc(C)c4)cc(C#N)cc3c2=O)cc1F` [Example 173, 2-(2-azabicyclo[2.1.1]hexan-1-yl)-3-(3,5-difluoro-4-methoxyphenyl)-8-(2-methylpyridin-4-yl)-4-oxo-3,4-dihydroquinazoline-6-carbonitrile], the EC50 in the experiment with VEEV TC83 and with WEEV California was 51 to 150 nM each time.

Regarding `Cc1ccc(-n2c([C@H]3CCCN3)nc3ccc([N+](=O)[O-])cc3c2=O)cc1` [Example 37, (R)-6-nitro-2-(pyrrolidin-2-yl)-3-(p-tolyl)quinazolin-4 (3H)-one], the EC50 in the experiment with VEEV TC83 was 1 to 50 nM; in the experiment on WEEV California, 501 to 1000 nM.

With `COc1c(F)cc(-n2c(C3C[C@H](F)CN3)nc3c(-c4ccnc(C)c4)cc(C#N)cc3c2=O)cc1F` (stereo partly drawn) [Example 156, 3-(3,5-Difluoro-4-methoxyphenyl)-2-((4S)-4-fluoropyrrolidin-2-yl)-8-(2-methylpyridin-4-yl)-4-oxo-3,4-dihydroquinazoline-6-carbonitrile], the results for the EC50 with VEEV TC83 and in the experiment with WEEV California were 1 to 50 nM and 151 to 500 nM, respectively.

Regarding `COc1ccc(-n2c([C@H](C)N(C)C)nc3ccc([N+](=O)[O-])cc3c2=O)cc1` [Example 208, (S)-2-(1-(dimethylamino)ethyl)-3-(4-methoxyphenyl)-6-nitroquinazolin-4 (3H)-one], the EC50 in the experiment on VEEV TC83 and with WEEV California was 51 to 150 nM in each case.
